Test results: patent US20160362402A1, “NOVEL COMPOUNDS HAVING ANTI-ALLODYNIC AND ANTIHYPERALGESIC ACTIVITY” (CONSORZIO INTERUNIVERSITARIO NAZIONALE PER LA SCIENZA E …, priority 2014, published 2016)

How the values were obtained:
[1] = Compatibility with oxaliplatin in physiological solution (1H NMR, mass spectra); type: physicochemical
primary rat astrocytes = assay: Superoxide anion production in primary rat astrocytes incubated with oxaliplatin; type: cell-based; conditions: oxaliplatin 100 μM alone, 4 hours; control 16.9±0.3 μM
Description: FIG. 1. Evaluation of the antioxidant profile of ADM-12 in a rat primary astrocytes cell culture *P<0.01 with respect to the untreated control and ̂P<0.01 with respect to astrocytes treated with oxaliplatin.
The antioxidant profile of ADM-12 also emerges in a cell culture of primary rat astrocytes (FIG. 1). Incubation of cells with the chemotherapic agent oxaliplatin 100 μM induces a significant production of the superoxide anion, which after 4 hours increases from 16.9±0.3 μM of the control to 31.1±2.1 μM; co-treatment with ADM-12 100 μM reduces the production of oxygen free radicals to 21.0±0.4 μM.

SMILES: O=C1[O][Pt]2([NH][C@@H]3CCCC[C@H]3[NH]2)[O]C1=O [oxaliplatin]
- structural integrity when mixed ([1]; ADM-12 and oxaliplatin mixed in physiological solution): remain structurally unaltered
- signal variations at 1H NMR and in mass spectra ([1]; ADM-12 with oxaliplatin in physiological solution, 24 and 48 hours, room temperature and 37° C.): does not show signal variations
- production of the superoxide anion (primary rat astrocytes): 31.1 ± 2.1 µM
